Experimental data reported in article PMC12126322, “Characterisation of the thermophilic P450 CYP116B305 identified using metagenomics-derived sequence data from an Australian hot spring” (Applied Microbiology and Biotechnology, 2025).
Each block holds one compound with its values, some of them ahead of it.

Experiments:
CYP116B305 [1] = assay: Substrate binding by UV-visible difference spectroscopy (KD, heme spin-state shift); set-up: species or system Geminicoccaceae; conditions: for Kd: difference spectroscopy, CYP116B305 2–4 µM, substrate 0–100 µM; for Spin-state shift (%): low-spin to high-spin heme shift on substrate binding
CYP116B305 [2] = assay: NAD(P)H consumption assay (cofactor preference, oxidation rates); format: biochemical, Geminicoccaceae; conditions: for NADH consumption rates / NADPH consumption rates: 33% FMN inclusion, min^−1; for NADH consumption rates (100% FMN rates) / NADPH consumption rates (100% FMN rates): corresponding to full FMN incorporation, approximate maximum; for Km: cofactor oxidation in the presence of 2-HPA, read-out: KM of nicotinamide cofactor
Method: The consumption rates were calculated using nonlinear regression (GraphPad Prism), fitting to either the Michaelis–Menten or a quadratic velocity equation to determine the apparent KM and kcat values.

CYP116B305 [3] = assay: In vitro catalytic turnovers and coupling efficiency (GC-MS); format: biochemical, Geminicoccaceae; conditions: for Coupling (NADPH): product formed to NADPH consumed
Method: The reaction mixtures contained CYP116B305 (1 µM) in KPi buffer (50 mM, pH 7.4), catalase (1 µM), substrate (600 µM), and NAD(P)H (1.2 mM). Reactions were conducted at both room temperature (25 °C) and elevated temperature (45 °C) under constant stirring for 1 h. A control reaction, omitting the P450 enzyme, was also performed. Post-incubation, reaction mixtures were acidified to pH 0–2 with HCl (except for 4-methoxyacetophenone assays), followed by extraction with ethyl acetate (3 × 1 mL). The combined organic phases were dried over magnesium sulphate and concentrated to 100 µL under a stream of nitrogen gas. Concentrated samples were derivatised with N,O-bis(trimethylsilyl)trifluoroacetamide (BSTFA-TMS) before being analysed by gas chromatography–mass spectrometry (GC–MS; Zebron ZB-5MS column 30 m × 0.25 mm × 0.25 µm). The method was 50 °C for 5 min followed by increments of 16 °C min^−1 until 250 °C was reached, then held for 5 min.
For coupling efficiency analysis, the NAD(P)H concentration was reduced to 200 µM, and an internal standard (100 µM) was added to the reactions prior to acidification and extraction. […] In the case of 4-methoxyacetophenone, the reactions were stirred for 2 h, and product formation (4-hydroxyacetophenone) was then quantified using a standard curve generated from 4-hydroxyacetophenone (0.05–1 mM) and an internal standard (fluorene; 100 µM).

CYP116B305 [4] = assay: Cytochrome c reduction assay with NADPH as electron donor; format: biochemical, Geminicoccaceae; conditions: cytochrome c as artificial electron acceptor
Method: Similarly, a cytochrome c reduction assay was also performed to derive the kinetic parameters, following established protocols (Guengerich et al. [2009]; Tavanti et al. [2018b]). Reactions contained cytochrome c (equine heart, Sigma-Aldrich, 50 µM), CYP116B305 (200 nM), catalase (1 µM), and varying concentrations of NADPH (0.5–200 µM). Cytochrome c reduction was monitored as described above, and nonlinear regression analysis (GraphPad Prism) was utilised to determine the KM and kcat values.

[5] = in the presence of 2-HPA, 25 °C

Kd (CYP116B305 [1]): 43 ± 6 µM | Spin-state shift (%) (CYP116B305 [1]): 25 ± 2% | Spin-state shift (%) (CYP116B305 [1]; listed as salicylic acid): 25 ± 2%
SMILES: O=C(O)c1ccccc1O [Salicylic acid]

Kd (CYP116B305 [1]): 61 ± 19 µM | Spin-state shift (%) (CYP116B305 [1]): 13 ± 4% | Spin-state shift (%) (CYP116B305 [1]; listed as trans-cinnamic acid): 13 ± 4%
SMILES: O=C(O)/C=C/c1ccccc1 [trans-Cinnamic acid]

Continued, compound first:

SMILES: O=C(O)Cc1ccc(O)cc1 [4-Hydroxyphenylacetic acid]
Kd (CYP116B305 [1]): 65 ± 13 µM | Spin-state shift (%) (CYP116B305 [1]): 17 ± 1% | Spin-state shift (%) (CYP116B305 [1]; listed as 4-hydroxyphenylacetic acid): 17 ± 1%

SMILES: COc1ccc(C(C)=O)cc1 [4-Methoxyacetophenone]
Kd (CYP116B305 [1]): 73 ± 6 µM | Spin-state shift (%) (CYP116B305 [1]): 26 ± 3% | Spin-state shift (%) (CYP116B305 [1]; listed as 4-methoxyacetophenone): 26 ± 3% | NADH consumption rates (CYP116B305 [2]; 25 °C): 2 ± 1 µM (µM^−1 P450) min^−1 | NADH consumption rates (100% FMN rates) (CYP116B305 [2]; 25 °C): ~6 µM (µM^−1 P450) min^−1 | NADH consumption rates (CYP116B305 [2]; 45 °C): 3 ± 1 µM (µM^−1 P450) min^−1 | NADPH consumption rates (CYP116B305 [2]; 45 °C): 1 ± 1 µM (µM^−1 P450) min^−1 | NADH consumption rates (100% FMN rates) (CYP116B305 [2]; 45 °C): ~9 µM (µM^−1 P450) min^−1 | NADPH consumption rates (100% FMN rates) (CYP116B305 [2]; 45 °C): ~3 µM (µM^−1 P450) min^−1 | product formation with NADH as electron donor (CYP116B305 [3]; 4-hydroxyacetophenone product, NADH): no product was observed | Coupling (NADPH) (CYP116B305 [3]; 25 °C): n.q | Coupling (NADPH) (CYP116B305 [3]; 45 °C, listed as 4-Methoxy acetophenone): 24 ± 5% | Coupling (NADPH) (CYP116B305 [3]; 45 °C, listed as 4-methoxyacetophenone): 24 ± 5%

SMILES: O=C(O)CCc1ccccc1O [HPPA, 3-(2-hydroxyphenyl)propionic acid]
Kd (CYP116B305 [1]): 0.4 ± 0.2 µM | Spin-state shift (%) (CYP116B305 [1]): 90 ± 5% | Spin-state shift (%) (CYP116B305 [1]; listed as 3-(2-Hydroxyphenyl)propionic acid (HPPA)): 90 ± 5% | NADH consumption rates (CYP116B305 [2]; 25 °C): 31 ± 3 µM (µM^−1 P450) min^−1 | NADPH consumption rates (CYP116B305 [2]; 25 °C): 11 ± 1 µM (µM^−1 P450) min^−1 | NADPH consumption rates (100% FMN rates) (CYP116B305 [2]; 25 °C): ~33 µM (µM^−1 P450) min^−1 | fold increase of NADH oxidation rate (CYP116B305 [2]; 45 °C compared to 25 °C): 2.4 fold | fold increase of NADPH oxidation rate (CYP116B305 [2]; 45 °C compared to 25 °C): sixfold | NADH consumption rates (CYP116B305 [2]; 45 °C): 73 ± 2 µM (µM^−1 P450) min^−1 | NADPH consumption rates (CYP116B305 [2]; 45 °C): 65 ± 3 µM (µM^−1 P450) min^−1 | NADH consumption rates (100% FMN rates) (CYP116B305 [2]; 45 °C): ~221 µM (µM^−1 P450) min^−1 | NADPH consumption rates (100% FMN rates) (CYP116B305 [2]; 45 °C): ~196 µM (µM^−1 P450) min^−1 | Coupling (NADPH) (CYP116B305 [3]; 25 °C): 15 ± 2% | Coupling (NADH) (CYP116B305 [3]; 45 °C, product formed to NADH consumed): 15 ± 9% | Coupling (NADPH) (CYP116B305 [3]; 45 °C): 26 ± 1%

SMILES: NC(=O)C1=CN([C@@H]2O[C@H](COP(=O)(O)OP(=O)(O)OC[C@H]3O[C@@H](n4cnc5c(N)ncnc54)[C@H](O)[C@@H]3O)[C@@H](O)[C@H]2O)C=CC1 [NADH, reference compound]
Km (CYP116B305 [2]; 25 °C): 60 ± 15 µM | kcat of nicotinamide cofactor oxidation (CYP116B305 [2]; [5]): 39 ± 4 min⁻¹

SMILES: NC(=O)C1=CN([C@@H]2O[C@H](COP(=O)(O)OP(=O)(O)OC[C@H]3O[C@@H](n4cnc5c(N)ncnc54)[C@H](OP(=O)(O)O)[C@@H]3O)[C@@H](O)[C@H]2O)C=CC1 [NADPH, reference compound]
Km (CYP116B305 [4]): 1200 ± 100 nM | kcat for NADPH (CYP116B305 [4]): 4.1 ± 0.1 min⁻¹ | Km (CYP116B305 [2]; 25 °C): 4.1 ± 0.3 µM | fold lower KM compared to NADH (CYP116B305 [2]; [5]): 15 fold | kcat of nicotinamide cofactor oxidation (CYP116B305 [2]; [5]): 13 ± 1 min⁻¹

SMILES: O=C(O)Cc1ccccc1 [Phenylacetic acid]
Kd (CYP116B305 [1]): 39 ± 11 µM | Spin-state shift (%) (CYP116B305 [1]): 34 ± 6% | Spin-state shift (%) (CYP116B305 [1]; listed as phenylacetic acid): 34 ± 6%
